In ChEMBL document CHEMBL3991601, “The target landscape of clinical kinase drugs” (Science, 2017):
Active and inactive are the calls of the source. For most assays here, no stated cut-off is given here; in the data, actives have a measured Kd and inactives only a lower limit.

Key:
[1] = biological target: T1, dCTP pyrophosphatase 1 (Homo sapiens, UniProt Q9H773)
T1 sequence (Q9H773 whole entry): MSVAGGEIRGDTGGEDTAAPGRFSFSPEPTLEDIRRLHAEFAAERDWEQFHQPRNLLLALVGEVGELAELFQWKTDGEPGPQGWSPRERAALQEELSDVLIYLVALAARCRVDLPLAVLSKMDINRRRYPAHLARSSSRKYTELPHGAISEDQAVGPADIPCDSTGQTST

[2] = biological target: T2, Cytochrome c1, heme protein, mitochondrial (Homo sapiens, UniProt P08574)
T2 sequence (P08574 whole entry): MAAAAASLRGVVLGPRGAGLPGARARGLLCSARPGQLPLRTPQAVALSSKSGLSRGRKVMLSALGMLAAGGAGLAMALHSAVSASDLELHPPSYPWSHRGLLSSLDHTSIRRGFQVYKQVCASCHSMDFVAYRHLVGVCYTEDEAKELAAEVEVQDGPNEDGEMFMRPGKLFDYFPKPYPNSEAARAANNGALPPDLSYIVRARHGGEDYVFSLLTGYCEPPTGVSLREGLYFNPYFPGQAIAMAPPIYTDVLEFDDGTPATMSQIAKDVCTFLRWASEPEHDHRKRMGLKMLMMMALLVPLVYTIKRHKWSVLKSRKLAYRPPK

[3] = biological target: T3, Phosphatidylinositol 5-phosphate 4-kinase type-2 alpha (Homo sapiens, UniProt P48426)
T3 sequence (P48426 whole entry): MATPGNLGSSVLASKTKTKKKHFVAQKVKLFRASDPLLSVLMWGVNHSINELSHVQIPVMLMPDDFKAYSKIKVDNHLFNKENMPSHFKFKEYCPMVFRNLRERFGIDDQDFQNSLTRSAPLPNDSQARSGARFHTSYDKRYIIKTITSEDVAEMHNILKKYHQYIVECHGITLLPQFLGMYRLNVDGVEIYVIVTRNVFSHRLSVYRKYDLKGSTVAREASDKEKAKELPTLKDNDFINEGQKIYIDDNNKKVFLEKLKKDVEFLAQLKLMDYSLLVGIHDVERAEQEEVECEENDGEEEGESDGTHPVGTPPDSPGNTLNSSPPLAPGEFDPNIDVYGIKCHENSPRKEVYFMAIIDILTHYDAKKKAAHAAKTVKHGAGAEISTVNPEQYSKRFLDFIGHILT

[4] = biological target: 26S proteasome regulatory subunit 6B (Homo sapiens, UniProt P43686)
Sequence of 26S proteasome regulatory subunit 6B (P43686 whole entry, canonical isoform): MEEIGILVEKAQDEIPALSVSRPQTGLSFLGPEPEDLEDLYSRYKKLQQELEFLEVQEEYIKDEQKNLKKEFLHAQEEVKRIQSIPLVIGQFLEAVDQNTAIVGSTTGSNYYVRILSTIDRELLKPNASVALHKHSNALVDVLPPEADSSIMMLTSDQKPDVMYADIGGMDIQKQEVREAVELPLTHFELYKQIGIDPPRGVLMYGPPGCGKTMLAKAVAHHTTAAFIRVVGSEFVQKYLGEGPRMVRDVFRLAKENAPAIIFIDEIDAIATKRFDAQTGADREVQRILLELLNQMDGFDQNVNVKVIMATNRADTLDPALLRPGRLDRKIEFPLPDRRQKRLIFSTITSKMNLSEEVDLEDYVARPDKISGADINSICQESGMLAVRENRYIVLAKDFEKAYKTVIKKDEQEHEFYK

[5] = biological target: Casein kinase I isoform delta (Homo sapiens, UniProt P48730)
Sequence of Casein kinase I isoform delta (P48730 whole entry, canonical isoform): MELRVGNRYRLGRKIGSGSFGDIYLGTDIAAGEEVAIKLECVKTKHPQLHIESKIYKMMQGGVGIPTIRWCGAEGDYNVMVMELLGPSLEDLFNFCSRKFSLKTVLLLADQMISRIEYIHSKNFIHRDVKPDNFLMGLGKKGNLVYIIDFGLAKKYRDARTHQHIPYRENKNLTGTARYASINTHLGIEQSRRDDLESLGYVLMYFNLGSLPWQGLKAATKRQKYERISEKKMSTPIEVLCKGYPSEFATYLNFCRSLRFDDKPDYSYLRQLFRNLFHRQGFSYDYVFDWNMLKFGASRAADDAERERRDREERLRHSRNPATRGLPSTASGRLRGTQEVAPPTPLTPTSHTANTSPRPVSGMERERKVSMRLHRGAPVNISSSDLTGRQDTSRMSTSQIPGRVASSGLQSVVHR

[6] = biological target: Calcium/calmodulin-dependent protein kinase kinase 2 (Homo sapiens, UniProt Q96RR4)
Sequence of Calcium/calmodulin-dependent protein kinase kinase 2 (Q96RR4 whole entry): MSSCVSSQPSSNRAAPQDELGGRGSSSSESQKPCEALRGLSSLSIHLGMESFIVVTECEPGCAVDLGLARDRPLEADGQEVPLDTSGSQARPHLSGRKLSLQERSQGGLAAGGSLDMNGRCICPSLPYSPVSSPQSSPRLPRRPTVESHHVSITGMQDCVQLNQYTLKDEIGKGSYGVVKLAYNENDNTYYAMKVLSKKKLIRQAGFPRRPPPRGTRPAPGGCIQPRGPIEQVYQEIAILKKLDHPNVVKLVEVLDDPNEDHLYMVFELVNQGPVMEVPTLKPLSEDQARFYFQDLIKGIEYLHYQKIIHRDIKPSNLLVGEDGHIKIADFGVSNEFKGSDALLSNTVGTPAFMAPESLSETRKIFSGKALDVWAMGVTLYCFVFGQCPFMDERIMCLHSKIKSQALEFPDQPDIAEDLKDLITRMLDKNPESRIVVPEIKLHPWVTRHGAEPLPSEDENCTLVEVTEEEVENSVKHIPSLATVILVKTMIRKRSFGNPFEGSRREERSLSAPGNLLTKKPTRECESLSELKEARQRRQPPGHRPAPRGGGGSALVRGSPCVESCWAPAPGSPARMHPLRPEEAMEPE

[7] = biological target: Mitogen-activated protein kinase 14 (Homo sapiens, UniProt Q16539)
Sequence of Mitogen-activated protein kinase 14 (Q16539 whole entry): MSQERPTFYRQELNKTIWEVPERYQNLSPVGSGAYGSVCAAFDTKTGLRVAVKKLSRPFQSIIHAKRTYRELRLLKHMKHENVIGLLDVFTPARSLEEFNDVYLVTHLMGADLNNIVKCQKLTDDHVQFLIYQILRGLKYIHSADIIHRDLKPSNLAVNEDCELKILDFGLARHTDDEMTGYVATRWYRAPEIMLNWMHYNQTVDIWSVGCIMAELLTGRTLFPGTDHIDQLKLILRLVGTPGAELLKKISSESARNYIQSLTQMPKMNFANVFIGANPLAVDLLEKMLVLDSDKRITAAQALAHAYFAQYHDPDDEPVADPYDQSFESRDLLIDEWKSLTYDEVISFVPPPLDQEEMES

[8] = biological target: Mitogen-activated protein kinase kinase kinase 4 (Homo sapiens, UniProt Q9Y6R4)
Sequence of Mitogen-activated protein kinase kinase kinase 4 (Q9Y6R4 whole entry): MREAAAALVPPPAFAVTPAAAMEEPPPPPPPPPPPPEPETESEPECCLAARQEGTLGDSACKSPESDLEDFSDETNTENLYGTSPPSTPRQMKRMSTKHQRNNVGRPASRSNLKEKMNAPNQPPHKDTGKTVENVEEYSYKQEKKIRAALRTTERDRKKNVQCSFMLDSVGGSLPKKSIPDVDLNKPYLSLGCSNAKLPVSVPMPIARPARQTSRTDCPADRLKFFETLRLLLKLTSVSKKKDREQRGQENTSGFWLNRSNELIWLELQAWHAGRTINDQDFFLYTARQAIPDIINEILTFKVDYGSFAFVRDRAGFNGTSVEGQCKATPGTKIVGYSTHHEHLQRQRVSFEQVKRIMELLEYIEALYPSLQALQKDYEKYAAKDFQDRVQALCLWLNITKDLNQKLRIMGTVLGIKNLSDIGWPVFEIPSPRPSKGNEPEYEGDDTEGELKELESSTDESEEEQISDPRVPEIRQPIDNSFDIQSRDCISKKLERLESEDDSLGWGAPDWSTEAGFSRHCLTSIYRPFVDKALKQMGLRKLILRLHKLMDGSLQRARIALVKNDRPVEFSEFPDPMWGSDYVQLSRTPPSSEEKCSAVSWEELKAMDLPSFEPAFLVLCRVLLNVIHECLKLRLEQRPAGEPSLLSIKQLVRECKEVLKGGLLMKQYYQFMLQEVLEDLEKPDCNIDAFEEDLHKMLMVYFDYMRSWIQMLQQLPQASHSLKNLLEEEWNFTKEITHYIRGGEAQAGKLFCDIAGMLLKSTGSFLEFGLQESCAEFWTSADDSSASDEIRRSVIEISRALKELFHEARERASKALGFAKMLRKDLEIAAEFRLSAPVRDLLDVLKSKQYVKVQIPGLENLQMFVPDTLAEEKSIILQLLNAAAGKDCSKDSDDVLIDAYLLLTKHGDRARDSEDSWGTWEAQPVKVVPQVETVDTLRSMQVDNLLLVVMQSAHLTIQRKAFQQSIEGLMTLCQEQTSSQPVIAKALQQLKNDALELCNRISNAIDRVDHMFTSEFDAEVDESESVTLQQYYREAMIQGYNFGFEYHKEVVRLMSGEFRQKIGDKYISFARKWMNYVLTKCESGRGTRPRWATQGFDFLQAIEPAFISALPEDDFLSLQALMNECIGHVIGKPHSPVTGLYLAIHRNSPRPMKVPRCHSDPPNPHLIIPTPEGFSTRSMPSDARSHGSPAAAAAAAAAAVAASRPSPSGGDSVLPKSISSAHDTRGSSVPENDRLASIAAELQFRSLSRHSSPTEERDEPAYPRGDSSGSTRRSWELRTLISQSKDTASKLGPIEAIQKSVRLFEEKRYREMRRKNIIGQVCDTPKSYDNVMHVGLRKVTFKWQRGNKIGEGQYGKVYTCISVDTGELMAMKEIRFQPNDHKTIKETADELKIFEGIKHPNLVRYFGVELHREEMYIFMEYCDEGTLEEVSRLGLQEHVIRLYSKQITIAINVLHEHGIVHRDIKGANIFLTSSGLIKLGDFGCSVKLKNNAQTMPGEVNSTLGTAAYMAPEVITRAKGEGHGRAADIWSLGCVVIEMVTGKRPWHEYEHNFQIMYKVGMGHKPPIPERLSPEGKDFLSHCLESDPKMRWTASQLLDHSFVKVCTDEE

[9] = biological target: Rho-associated protein kinase 2 (Homo sapiens, UniProt O75116)
[10] = biological target: Serine/threonine-protein kinase/endoribonuclease IRE1 (Homo sapiens, UniProt O75460)
Sequence of Serine/threonine-protein kinase/endoribonuclease IRE1 (O75460 whole entry): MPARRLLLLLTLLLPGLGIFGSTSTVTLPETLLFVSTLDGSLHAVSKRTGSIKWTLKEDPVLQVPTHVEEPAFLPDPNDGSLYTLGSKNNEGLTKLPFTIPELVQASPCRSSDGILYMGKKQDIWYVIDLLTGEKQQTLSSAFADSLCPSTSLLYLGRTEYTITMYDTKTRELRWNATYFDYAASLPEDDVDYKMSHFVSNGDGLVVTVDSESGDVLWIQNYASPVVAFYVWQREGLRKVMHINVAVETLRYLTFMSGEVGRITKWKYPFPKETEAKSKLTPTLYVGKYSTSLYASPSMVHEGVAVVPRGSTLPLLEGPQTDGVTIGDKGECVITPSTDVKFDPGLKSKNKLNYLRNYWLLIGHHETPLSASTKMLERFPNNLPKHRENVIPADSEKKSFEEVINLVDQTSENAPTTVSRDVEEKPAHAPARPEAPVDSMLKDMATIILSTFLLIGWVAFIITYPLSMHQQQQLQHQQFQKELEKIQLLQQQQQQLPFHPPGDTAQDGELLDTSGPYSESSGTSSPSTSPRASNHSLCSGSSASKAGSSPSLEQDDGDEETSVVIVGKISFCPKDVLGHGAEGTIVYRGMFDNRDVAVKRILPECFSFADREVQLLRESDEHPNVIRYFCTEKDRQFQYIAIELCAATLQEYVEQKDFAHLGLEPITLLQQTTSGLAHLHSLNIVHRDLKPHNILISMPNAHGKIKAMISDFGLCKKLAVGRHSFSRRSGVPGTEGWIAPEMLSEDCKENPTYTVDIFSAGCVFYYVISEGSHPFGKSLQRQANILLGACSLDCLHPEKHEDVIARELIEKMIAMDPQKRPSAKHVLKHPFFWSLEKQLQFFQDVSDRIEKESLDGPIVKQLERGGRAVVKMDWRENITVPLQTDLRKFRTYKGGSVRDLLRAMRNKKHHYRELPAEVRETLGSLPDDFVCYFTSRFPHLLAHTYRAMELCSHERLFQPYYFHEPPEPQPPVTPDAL

[11] = biological target: T4, Mitogen-activated protein kinase kinase kinase 2 (Homo sapiens, UniProt Q9Y2U5)
T4 sequence (Q9Y2U5 whole entry): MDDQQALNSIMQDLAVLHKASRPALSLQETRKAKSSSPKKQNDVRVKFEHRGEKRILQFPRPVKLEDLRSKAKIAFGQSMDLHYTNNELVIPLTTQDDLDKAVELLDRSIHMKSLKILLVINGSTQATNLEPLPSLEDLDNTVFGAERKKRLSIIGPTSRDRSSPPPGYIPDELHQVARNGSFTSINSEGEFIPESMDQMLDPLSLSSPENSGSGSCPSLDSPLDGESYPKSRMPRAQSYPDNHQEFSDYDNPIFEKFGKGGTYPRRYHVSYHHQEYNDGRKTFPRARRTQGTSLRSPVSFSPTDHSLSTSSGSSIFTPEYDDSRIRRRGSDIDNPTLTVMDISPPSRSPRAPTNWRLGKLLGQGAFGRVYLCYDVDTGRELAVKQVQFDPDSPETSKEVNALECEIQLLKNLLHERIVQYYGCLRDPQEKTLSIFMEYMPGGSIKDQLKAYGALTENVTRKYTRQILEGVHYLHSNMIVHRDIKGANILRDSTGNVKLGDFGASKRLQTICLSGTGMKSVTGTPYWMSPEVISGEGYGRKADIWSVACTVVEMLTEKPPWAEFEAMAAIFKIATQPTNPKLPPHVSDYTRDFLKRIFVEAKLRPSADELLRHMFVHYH

[12] = biological target: Glycogen synthase kinase-3 alpha (Homo sapiens, UniProt P49840)
Sequence of Glycogen synthase kinase-3 alpha (P49840 whole entry): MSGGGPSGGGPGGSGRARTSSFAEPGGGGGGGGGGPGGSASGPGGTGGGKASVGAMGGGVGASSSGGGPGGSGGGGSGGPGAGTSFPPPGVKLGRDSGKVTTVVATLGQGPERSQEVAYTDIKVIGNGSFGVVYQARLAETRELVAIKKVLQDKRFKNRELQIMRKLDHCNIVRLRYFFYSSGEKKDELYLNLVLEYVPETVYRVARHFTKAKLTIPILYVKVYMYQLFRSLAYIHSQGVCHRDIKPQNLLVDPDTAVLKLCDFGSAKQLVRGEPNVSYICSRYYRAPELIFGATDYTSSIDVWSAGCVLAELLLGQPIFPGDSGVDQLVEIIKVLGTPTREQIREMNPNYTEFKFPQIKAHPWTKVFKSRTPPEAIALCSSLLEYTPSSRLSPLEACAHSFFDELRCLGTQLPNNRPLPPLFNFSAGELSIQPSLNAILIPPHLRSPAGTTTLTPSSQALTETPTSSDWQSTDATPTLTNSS

[13] = biological target: cAMP-dependent protein kinase catalytic subunit beta (Homo sapiens, UniProt P22694)
[14] = biological target: Mitogen-activated protein kinase kinase kinase kinase 4 (Homo sapiens, UniProt O95819)

| Structure (SMILES) | Kd [1] | Kd [2] | Kd [3] | Kd [4] | Kd [5] | Kd [6] | Kd [7] | Kd [8] | Kd [9] | Kd [10] | Kd [11] | Kd [12] | Kd [13] | Kd [14] |
| --- | --- | --- | --- | --- | --- | --- | --- | --- | --- | --- | --- | --- | --- | --- |
| Cn1cc(C2=C(c3cn(C4CCN(Cc5ccccn5)CC4)c4ccccc34)C(=O)NC2=O)c2ccccc21 [ENZASTAURIN] | > 30 µM (inactive) | > 30 µM (inactive) | > 30 µM (inactive) | > 30 µM (inactive) |  |  |  |  |  |  |  |  |  |  |
| CN(C[C@@H]1COCCO1)S(=O)(=O)Nc1ccc2ccc3ncc(-c4cnn(C)c4)cc3c(=O)c2c1 [MK-2461] | > 30 µM (inactive) | > 30 µM (inactive) | > 30 µM (inactive) | > 30 µM (inactive) | > 30 µM (inactive) | > 30 µM (inactive) | > 30 µM (inactive) | > 30 µM (inactive) | > 30 µM (inactive) | > 30 µM (inactive) | > 30 µM (inactive) | > 30 µM (inactive) | > 30 µM (inactive) | > 30 µM (inactive) |
| Cc1nc2cc(-n3ncc(C(=O)c4cc5ccccc5[nH]4)c3N)ccc2[nH]1 [FGFR INHIBITOR DEBIO 1347] | > 30 µM (inactive) | > 30 µM (inactive) |  | > 30 µM (inactive) | > 30 µM (inactive) | > 30 µM (inactive) | > 30 µM (inactive) | > 30 µM (inactive) | > 30 µM (inactive) | > 30 µM (inactive) | > 30 µM (inactive) | > 30 µM (inactive) | > 30 µM (inactive) | > 30 µM (inactive) |
| N#CC[C@H](C1CCCC1)n1cc(-c2ncnc3[nH]ccc23)cn1 [RUXOLITINIB] | > 30 µM (inactive) | > 30 µM (inactive) | > 30 µM (inactive) | > 30 µM (inactive) |  |  |  |  |  |  |  |  |  |  |
| C[C@H]1CNCCCN1S(=O)(=O)c1cccc2cncc(F)c12 | > 30 µM (inactive) | > 30 µM (inactive) |  | > 30 µM (inactive) | > 30 µM (inactive) | > 30 µM (inactive) | > 30 µM (inactive) | > 30 µM (inactive) | 0.083 µM (active) | > 30 µM (inactive) | > 30 µM (inactive) | > 30 µM (inactive) | > 30 µM (inactive) | > 30 µM (inactive) |
| C[C@@H](Oc1cc(C(=O)Nc2ccc(C(=O)N3CCN(C)CC3)cc2)nnc1N)c1c(Cl)ccc(F)c1Cl | > 30 µM (inactive) |  |  | > 30 µM (inactive) | > 30 µM (inactive) | > 30 µM (inactive) | > 30 µM (inactive) | > 30 µM (inactive) | > 30 µM (inactive) | > 30 µM (inactive) | > 30 µM (inactive) | > 30 µM (inactive) | > 30 µM (inactive) | > 30 µM (inactive) |
| CNC(=O)c1ccccc1Sc1ccc2c(/C=C/c3ccccn3)n[nH]c2c1 [AXITINIB] | > 30 µM (inactive) | > 30 µM (inactive) | > 30 µM (inactive) | > 30 µM (inactive) |  |  |  |  |  |  |  |  |  |  |

More lines, now with the values ahead:

| Kd [1] | Kd [2] | Kd [3] | Kd [4] | Kd [5] | Kd [6] | Kd [7] | Kd [8] | Kd [9] | Kd [10] | Kd [11] | Kd [12] | Kd [13] | Kd [14] | Structure (SMILES) |
| --- | --- | --- | --- | --- | --- | --- | --- | --- | --- | --- | --- | --- | --- | --- |
| > 30 µM (inactive) | > 30 µM (inactive) |  | > 30 µM (inactive) | > 30 µM (inactive) | > 30 µM (inactive) | > 30 µM (inactive) | > 30 µM (inactive) | 18.3 µM (active) | > 30 µM (inactive) | > 30 µM (inactive) | > 30 µM (inactive) | > 30 µM (inactive) | > 30 µM (inactive) | Nc1ncnc2c1c(-c1cccc(OCc3ccccc3)c1)cn2[C@H]1C[C@@H](CN2CCC2)C1 [AEW-541] |
| > 30 µM (inactive) | > 30 µM (inactive) | > 30 µM (inactive) | > 30 µM (inactive) |  |  |  |  |  |  |  |  |  |  | C[C@@H](Oc1cc(-n2cnc3ccc(CN4CCN(C)CC4)cc32)sc1C(N)=O)c1ccccc1C(F)(F)F [GSK-461364] |
| > 30 µM (inactive) | > 30 µM (inactive) | > 30 µM (inactive) | > 30 µM (inactive) |  |  |  |  |  |  |  |  |  |  | O=C(NOCCO)c1cc(CN2OCCCC2=O)c(F)c(F)c1Nc1ccc(I)cc1F [RO-4987655] |
